Tests used:
Assay in all cases: Histone peptide microarray
Assay type in all cases: binding, human
MLL5 = conditions: MLL5, GST-tagged; arrays performed twice, n of 4
Source text: (§1) To more comprehensively define the histone interactions of the 31 PHD readers identified from the domain microarray analyses, we probed each on an alternate microarray platform containing a library of 293 synthetic histone peptides with single or combinatorial PTMs (Additional file 2: Figure S4 and Additional file 3: Table S2).
(§2) The 31 GST-tagged PHD readers identified in the PHD finger domain array were expressed and purified as previously. Histone peptide arrays and peptide pulldown assays were conducted as recently described (specifically, the optimized protocol from Petell et al. for the former).
(§3) Supplementary file 13072_2020_328_MOESM3_ESM.xlsx: Additional file 3: Table S2. […] Excel Tab Peptide List is a compiled list of the entire 293 histone peptide library with amino acid sequence ranges. […] Each number corresponds to the peptide number designated in Peptide List. Excel Tab Average Signals is a compiled set of binding data: chromatin reader at 0.5 μM vs. entire 293 peptide library. Data is presented as the average and standard deviation of 4 replicates. The average signals are colored to indicate signal intensity with green being strong and white being weak/low. […] Key: red= stronger relative binding; blue = weaker relative binding. Excel Tab Array info summary is a table summarizing the domains, sequence coverage, array signal range, and noise for each of the GST-tagged readers assayed on the peptide microarrays.

CHD4 (PPCC) = conditions: CHD4 (PPCC), GST-tagged; arrays performed twice, n of 4
Source text: as §1, §2, §3

RAG2 = conditions: RAG2, GST-tagged; arrays performed twice, n of 4
Source text: as §1, §2, §3

DPF2 (PPC2W2) = conditions: DPF2 (PPC2W2), GST-tagged; arrays performed twice, n of 4
Source text: as §1, §2, §3

BPTF (PB) = conditions: BPTF (PB), GST-tagged; arrays performed twice, n of 4
Source text: as §1, §2, §3

KDM4C (TTP) = conditions: KDM4C (TTP), GST-tagged; arrays performed twice, n of 4
Source text: as §1, §2, §3

ING3 = conditions: ING3, GST-tagged; arrays performed twice, n of 4
Source text: as §1, §2, §3

KDM5A (3) = conditions: KDM5A (3), GST-tagged; arrays performed twice, n of 4
Source text: as §1, §2, §3

PHF13 = conditions: PHF13, GST-tagged; arrays performed twice, n of 4
Source text: as §1, §2, §3

CHD5 (PCC) = conditions: CHD5 (PCC), GST-tagged; arrays performed twice, n of 4
Source text: as §1, §2, §3

PHF21A = conditions: PHF21A, GST-tagged; arrays performed twice, n of 4
Source text: as §1, §2, §3

TRIM66 (PB) = conditions: TRIM66 (PB), GST-tagged; arrays performed twice, n of 4
Source text: as §1, §2, §3

ING5 = conditions: ING5, GST-tagged; arrays performed twice, n of 4
Source text: as §1, §2, §3

MORC3 (CW) = conditions: MORC3 (CW), GST-tagged; arrays performed twice, n of 4
Source text: as §1, §2, §3

BAZ2B = conditions: BAZ2B, GST-tagged; arrays performed twice, n of 4
Source text: as §1, §2, §3

SP140L = conditions: SP140L, GST-tagged; arrays performed twice, n of 4
Source text: as §1, §2, §3

ING4 = conditions: ING4, GST-tagged; arrays performed twice, n of 4
Source text: as §1, §2, §3

PHF8 = conditions: PHF8, GST-tagged; arrays performed twice, n of 4
Source text: as §1, §2, §3

PHRF1 (RP) = conditions: PHRF1 (RP), GST-tagged; arrays performed twice, n of 4
Source text: as §1, §2, §3

ING1 = conditions: ING1, GST-tagged; arrays performed twice, n of 4
Source text: as §1, §2, §3

CHD5 (PPCC) = conditions: CHD5 (PPCC), GST-tagged; arrays performed twice, n of 4
Source text: as §1, §2, §3

PHF23 = conditions: PHF23, GST-tagged; arrays performed twice, n of 4
Source text: as §1, §2, §3

AIRE (PP) = conditions: AIRE (PP), GST-tagged; arrays performed twice, n of 4
Source text: as §1, §2, §3

ING2 = conditions: ING2, GST-tagged; arrays performed twice, n of 4
Source text: as §1, §2, §3

KDM7A = conditions: KDM7A, GST-tagged; arrays performed twice, n of 4
Source text: as §1, §2, §3

TAF3 = conditions: TAF3, GST-tagged; arrays performed twice, n of 4
Source text: as §1, §2, §3

KDM5A (1) = conditions: KDM5A (1), GST-tagged; arrays performed twice, n of 4
Source text: as §1, §2, §3

KDM5B (3) = conditions: KDM5B (3), GST-tagged; arrays performed twice, n of 4
Source text: as §1, §2, §3

DIDO1 = conditions: DIDO1, GST-tagged; arrays performed twice, n of 4
Source text: as §1, §2, §3

PHF2 = conditions: PHF2, GST-tagged; arrays performed twice, n of 4
Source text: as §1, §2, §3

Substance | Array Heatmap value (peptide array binding signal) (MLL5) | Array Heatmap value (peptide array binding signal) (CHD4 (PPCC)) | Array Heatmap value (peptide array binding signal) (RAG2) | Array Heatmap value (peptide array binding signal) (DPF2 (PPC2W2)) | Array Heatmap value (peptide array binding signal) (BPTF (PB)) | Array Heatmap value (peptide array binding signal) (KDM4C (TTP)) | Array Heatmap value (peptide array binding signal) (ING3) | Array Heatmap value (peptide array binding signal) (KDM5A (3)) | Array Heatmap value (peptide array binding signal) (PHF13) | Array Heatmap value (peptide array binding signal) (CHD5 (PCC)) | Array Heatmap value (peptide array binding signal) (PHF21A) | Array Heatmap value (peptide array binding signal) (TRIM66 (PB)) | Array Heatmap value (peptide array binding signal) (ING5) | Array Heatmap value (peptide array binding signal) (MORC3 (CW)) | Array Heatmap value (peptide array binding signal) (BAZ2B) | Array Heatmap value (peptide array binding signal) (SP140L) | Array Heatmap value (peptide array binding signal) (ING4) | Array Heatmap value (peptide array binding signal) (PHF8) | Array Heatmap value (peptide array binding signal) (PHRF1 (RP)) | Array Heatmap value (peptide array binding signal) (ING1) | also measured
H4K8ac + K12ac + K16ac: H4 1-23 | 0.5342 | 0.6125 | 0.271 | 0.6365 | 0.384 | 0.5459 | 0.5255 | 0.5089 | 0.6695 | 0.7879 | 0.5044 | 0.6251 | 0.3961 | 0.3996 | 0.4965 | 0.383 | 0.4992 | 0.3768 | 0.4693 | 0.5851 | Array Heatmap value (peptide array binding signal) (CHD5 (PPCC)): 0.614; Array Heatmap value (peptide array binding signal) (PHF23): 0.5595; Array Heatmap value (peptide array binding signal) (AIRE (PP)): 0.4841; Array Heatmap value (peptide array binding signal) (ING2): 0.6214; Array Heatmap value (peptide array binding signal) (KDM7A): 0.4096; Array Heatmap value (peptide array binding signal) (TAF3): 0.2999; Array Heatmap value (peptide array binding signal) (KDM5A (1)): 0.498; Array Heatmap value (peptide array binding signal) (KDM5B (3)): 0.4821; Array Heatmap value (peptide array binding signal) (DIDO1): 0.7526; Array Heatmap value (peptide array binding signal) (PHF2): 0.546
H4K8ac + K12ac: H4 1-23 | 0.5505 | 0.5759 | 0.2531 | 0.6914 | 0.3598 | 0.5553 | 0.4849 | 0.4276 | 0.6286 | 0.8072 | 0.4992 | 0.5841 | 0.3813 | 0.3777 | 0.5085 | 0.3826 | 0.4864 | 0.3425 | 0.4073 | 0.5248 | Array Heatmap value (peptide array binding signal) (CHD5 (PPCC)): 0.5916; Array Heatmap value (peptide array binding signal) (PHF23): 0.5272; Array Heatmap value (peptide array binding signal) (AIRE (PP)): 0.5703; Array Heatmap value (peptide array binding signal) (ING2): 0.5831; Array Heatmap value (peptide array binding signal) (KDM7A): 0.4671; Array Heatmap value (peptide array binding signal) (TAF3): 0.2763; Array Heatmap value (peptide array binding signal) (KDM5A (1)): 0.4987; Array Heatmap value (peptide array binding signal) (KDM5B (3)): 0.5016; Array Heatmap value (peptide array binding signal) (DIDO1): 0.6459; Array Heatmap value (peptide array binding signal) (PHF2): 0.4562

— publication PMC6979384, “Characterization of the plant homeodomain (PHD) reader family for their histone tail interactions” (Epigenetics & Chromatin, 2020)
